These molecules were tested against GABA-A receptor; anion channel (assay: Displacement of [3H]flunitrazepine binding from GABA-A central benzodiazepine receptor of rat cerebral cortical membrane).

Compound | Ki
O=c1cc(-c2ccc([N+](=O)[O-])cc2)oc2ccc([N+](=O)[O-])cc12 | > 10000 nM
O=c1c(Br)c(-c2cccc([N+](=O)[O-])c2)oc2ccccc12 | > 20000 nM
O=c1cc(-c2ccccc2)oc2ccc(Br)cc12 [6-BROMOFLAVONE] | 75 nM
O=c1cc(-c2cccc(Cl)c2)oc2ccccc12 | 614 nM
O=c1cc(-c2cccc([N+](=O)[O-])c2)oc2ccc([N+](=O)[O-])cc12 | 26 nM
O=c1cc(-c2cccc(Br)c2)oc2ccc(Br)cc12 | 19 nM
O=c1cc(-c2ccccc2[N+](=O)[O-])oc2ccc([N+](=O)[O-])cc12 | > 10000 nM
O=c1cc(-c2cccc([N+](=O)[O-])c2)oc2ccc(Cl)cc12 | 8 nM
O=c1cc(-c2ccc(Br)cc2)oc2ccccc12 | > 20000 nM
O=c1cc(-c2ccccc2)oc2ccc(F)cc12 | 4500 nM
O=c1cc(-c2ccccc2[N+](=O)[O-])oc2ccccc12 | > 20000 nM
O=c1cc(-c2ccccc2)oc2ccccc12 [FLAVONE] | 1000 nM
O=c1cc(-c2cccc(Br)c2)oc2ccccc12 | 413 nM
O=c1cc(-c2ccccc2[N+](=O)[O-])oc2ccc(Br)cc12 | 208 nM
O=c1c(Br)c(-c2ccccc2)oc2ccccc12 | > 75000 nM
O=c1cc(-c2cccc([N+](=O)[O-])c2)oc2ccc(F)cc12 | 180 nM
O=c1c(Br)c(-c2ccccc2)oc2ccc(Br)cc12 | > 75000 nM
O=c1cc(-c2cc([N+](=O)[O-])cc([N+](=O)[O-])c2)oc2ccccc12 | > 20000 nM
O=c1cc(-c2cccc(Br)c2)oc2ccc([N+](=O)[O-])cc12 | 25 nM
O=c1cc(-c2ccccc2)oc2ccc(Cl)cc12 [6-CHLOROFLAVONE] | 164 nM
O=c1cc(-c2ccccc2)oc2ccc([N+](=O)[O-])cc12 | 275 nM
O=c1cc(-c2ccc([N+](=O)[O-])cc2)oc2ccc(Br)cc12 | 200 nM
O=c1cc(-c2cccc([N+](=O)[O-])c2)oc2ccccc12 | 285 nM
